One data set deals with B16 melanoma. The following applies: mice, multi-dose administration; cited from earlier work.
The target in data set [1] is monoclonal antibody from hybridoma 1C1 H2 A5. Briefly: Competitive ELISA of platinum compounds for binding to 1C1 H2 A5 monoclonal antibody. On the set-up: species or system mouse. Particulars: for concentration of agent which decreased the antibody binding to 50% of control: MOAB 1C1 H2 A5, immobilized DACH Pt complex in microtiter wells. The method, then: A DACH Pt complex was immobilized on the surface of microtiter wells.
A DACH Pt complex was immobilized on the surface of microtiter wells, to which MOAB binding was measured.
A competitive ELISA assay using monoclonal antibody specific for platinum (II) complex was performed. Monoclonal antibody from hybridoma 1C1 H2 A5 was added to microtiter wells having an immobilized DACH Pt complex. The MOAB was added either with no free platinum complex (control) or with increasing amounts of free MIDP platinum complex. Additionally, three compounds (designated A, B and C), whose identities were best unknown at that time, were added in parallel to the MIDP competition study. As shown in FIG. 10 the competition of compound A was quite similar to that of MIDP. Compound B (FIG. 11) was less similar to MIDP and compound C (FIG. 12) was least like MIDP although still being inhibitory of MOAB binding. The concentration of each agent which decreased the antibody binding to 50% of control was: MIDP=lug; A=2ug; B=4ug and C=200ug.

Data set [2] relates to human breast carcinoma cells (MCF-7). Briefly: MTT assay; cytotoxicity on MCF-7 breast carcinoma cells. It counts as cell-based. Particulars: MCF-7, 72 hrs. The method, then:
Eight thousand MCF-7 cells were seeded per well and an MTT dye viability test performed.
In order to determine whether the MIDP/MOAB complex retained antiproliferative activity against cells in culture, the antibody (2 mg) was incubated with 200 ug of MIDP platinum complex for 24 hrs. The MOAB/MIDP solution was then dialyzed for 4 hrs at 4° C. against phosphate-buffered saline (PBS). The dialysate was then analyzed for total platinum by atomic absorption spectrometry. The monoclonal antibody/MIDP complex was then added to human breast carcinoma cells (MCF-7) in concentrations between 0.01 and 10 ug Pt/ml. As a control on the same plates, MIDP was also added at equal platinum concentrations. At 72 hrs after treatment, the wells were assessed for viable cells by MTT assay.
**Cell survival was determined using the tetrazolium dyebinding method
(MTT) which dye reacts only with living cells.
In general terms: Tetrazolium assays rely on reduction of a dye to a coloured formazan, in cell work by metabolically active cells.

For data set [3] the following is noted: in vivo; cited from earlier work.
Data set [4] concerns cells resistant to cisplatin. The following applies: cited from earlier work.
The subject of another data set is L1210 leukemia. The following applies: mice, multi-dose administration; cited from earlier work.

Regarding `CN(CC(=O)[O-])CC(=O)[O-].NC1CCCCC1N.[Pt+2]` [MIDP, methylimino-diacetato-1,2-diaminocyclohexane platinum (II)], in the data set on B16 melanoma, the “treatment of B16 melanoma” value is reported as “curative”. Further, the “concentration of agent which decreased the antibody binding to 50% of control” value in data set [1] worked out at 2 µg. Also, the “Percent of Control Cell survival” value in data set [2] (MIDP concentration 0.019 ug/ml) is recorded as 86.9%; in data set [2] (MIDP concentration 0.039 ug/ml), 84.3%; in data set [2] (MIDP concentration 0.078 ug/ml), 72.4%; in data set [2] (MIDP concentration 0.156 ug/ml), 45.5%; in data set [2] (MIDP concentration 0.312 ug/ml) it was 32.3%; in data set [2] (MIDP concentration 0.625 ug/ml) it was 17.0%. Further, the “Percent of Control Cell survival” value in data set [2] (MIDP concentration 1.25 ug/ml) is 18.5%; in data set [2] (MIDP concentration 2.5 ug/ml), 15.2%; in data set [2] (MIDP concentration 5 ug/ml), 10.8%; in data set [2] (MIDP concentration 10 ug/ml), 8.3%. The “concentration required for 50% inhibition of cell growth” value in data set [2] (MTT, platinum concentration) was 0.15 µg/mL. In addition, the renal toxicity entry in data set [3] is given as “does not induce renal toxicity”. In addition, the cross-resistance entry in data set [4] is “not to display cross-resistance”. The “treatment of L1210 leukemia” value in the data set with L1210 leukemia was “curative”.

As for `N.N.O=C([O-])C1(C(=O)[O-])CCC1.[Pt+2]` [Compound C, diamine Pt(II) 1,1-dicarboxylatocyclobutane], the “concentration of agent which decreased the antibody binding to 50% of control” value in data set [1] was found to be 200 µg. Moreover, in data set [1] (relative to MIDP), the “amount needed to compete at a level with MIDP” value is recorded as 100-200 times.

As to `NC1CCCCC1N.O=C([O-])C1(C(=O)[O-])CCC1.[Pt+2]` [Compound B, DACH Pt(II) 1,1-dicarboxylatocyclobutane], the “concentration of agent which decreased the antibody binding to 50% of control” value in data set [1] was 4 µg. In addition, in data set [1] (relative to compound C), the “binding to the antibody relative to compound C” value was “about 50 fold”.
